The source of these data is ChEMBL document CHEMBL1133080, “Substituted 5,7-diphenyl-pyrrolo[2,3d]pyrimidines: potent inhibitors of the tyrosine kinase c-Src” (Bioorg Med Chem Lett, 2000).

The target of assay [1] is T1, Epidermal growth factor receptor (Homo sapiens, UniProt P00533). Put plainly: Tested for inhibition of EGF-receptor tyrosine kinase in intact cells.
Assay [2] has as its target T1, Epidermal growth factor receptor. As to the kind of experiment: Tested in vitro for inhibition of EGF-receptor tyrosine kinase.
The target of assay [3] is Vascular endothelial growth factor receptor 2 (Homo sapiens, UniProt P35968). Put plainly: Tested in vitro for inhibition of KDR-receptor tyrosine kinase.
Vascular endothelial growth factor receptor 2, sequence (P35968 whole entry): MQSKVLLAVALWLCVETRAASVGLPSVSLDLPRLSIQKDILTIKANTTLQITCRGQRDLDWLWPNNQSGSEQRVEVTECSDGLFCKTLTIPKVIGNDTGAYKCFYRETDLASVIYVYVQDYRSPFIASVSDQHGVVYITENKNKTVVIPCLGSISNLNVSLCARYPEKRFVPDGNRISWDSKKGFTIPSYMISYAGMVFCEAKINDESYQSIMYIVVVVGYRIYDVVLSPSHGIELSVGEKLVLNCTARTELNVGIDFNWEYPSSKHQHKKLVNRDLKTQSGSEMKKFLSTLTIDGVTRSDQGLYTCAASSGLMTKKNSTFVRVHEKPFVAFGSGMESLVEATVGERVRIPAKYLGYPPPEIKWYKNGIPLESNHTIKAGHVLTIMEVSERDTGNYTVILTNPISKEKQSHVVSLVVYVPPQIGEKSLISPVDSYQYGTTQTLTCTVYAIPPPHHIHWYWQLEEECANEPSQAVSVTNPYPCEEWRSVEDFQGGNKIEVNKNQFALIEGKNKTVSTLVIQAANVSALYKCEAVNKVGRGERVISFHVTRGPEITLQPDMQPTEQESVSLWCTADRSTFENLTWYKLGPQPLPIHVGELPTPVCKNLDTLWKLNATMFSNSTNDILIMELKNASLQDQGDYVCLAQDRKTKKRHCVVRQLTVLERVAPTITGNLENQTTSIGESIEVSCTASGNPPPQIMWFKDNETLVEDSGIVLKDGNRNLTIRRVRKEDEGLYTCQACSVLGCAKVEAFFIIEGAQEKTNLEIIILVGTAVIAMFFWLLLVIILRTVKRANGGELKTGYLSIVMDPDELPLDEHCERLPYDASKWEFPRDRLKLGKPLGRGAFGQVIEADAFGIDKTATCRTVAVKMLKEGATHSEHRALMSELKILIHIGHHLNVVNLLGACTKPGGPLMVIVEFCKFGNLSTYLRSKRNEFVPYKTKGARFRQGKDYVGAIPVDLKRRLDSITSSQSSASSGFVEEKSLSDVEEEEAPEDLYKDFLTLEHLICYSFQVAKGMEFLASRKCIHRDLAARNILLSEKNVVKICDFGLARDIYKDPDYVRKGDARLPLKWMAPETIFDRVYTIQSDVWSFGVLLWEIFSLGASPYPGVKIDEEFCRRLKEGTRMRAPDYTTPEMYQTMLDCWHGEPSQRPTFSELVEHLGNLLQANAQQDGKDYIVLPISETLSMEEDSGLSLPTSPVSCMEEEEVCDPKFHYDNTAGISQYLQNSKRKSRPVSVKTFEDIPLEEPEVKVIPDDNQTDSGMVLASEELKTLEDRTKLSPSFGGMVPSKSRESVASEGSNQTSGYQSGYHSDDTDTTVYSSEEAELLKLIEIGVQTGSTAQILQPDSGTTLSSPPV
Assay [4] deals with Platelet-derived growth factor receptor (Mus musculus, UniProt P05622+P26618). As to the kind of experiment: Inhibition of PDGF-receptor kinase. The class given is protein-complex assay.
Assay [5] has as its target T2, Proto-oncogene tyrosine-protein kinase Src (Gallus gallus, UniProt P00523). As to the kind of experiment: Tested for inhibition of protein tyrosine kinase c-Src phosphorylation.
Assay [6] deals with Tyrosine-protein kinase CSK (Homo sapiens, UniProt P41240). As to the kind of experiment: Tested for inhibition of protein tyrosine kinase Csk phosphorylation in intact cells. The assay is classed as cell-based.
Tyrosine-protein kinase CSK, sequence (P41240 whole entry): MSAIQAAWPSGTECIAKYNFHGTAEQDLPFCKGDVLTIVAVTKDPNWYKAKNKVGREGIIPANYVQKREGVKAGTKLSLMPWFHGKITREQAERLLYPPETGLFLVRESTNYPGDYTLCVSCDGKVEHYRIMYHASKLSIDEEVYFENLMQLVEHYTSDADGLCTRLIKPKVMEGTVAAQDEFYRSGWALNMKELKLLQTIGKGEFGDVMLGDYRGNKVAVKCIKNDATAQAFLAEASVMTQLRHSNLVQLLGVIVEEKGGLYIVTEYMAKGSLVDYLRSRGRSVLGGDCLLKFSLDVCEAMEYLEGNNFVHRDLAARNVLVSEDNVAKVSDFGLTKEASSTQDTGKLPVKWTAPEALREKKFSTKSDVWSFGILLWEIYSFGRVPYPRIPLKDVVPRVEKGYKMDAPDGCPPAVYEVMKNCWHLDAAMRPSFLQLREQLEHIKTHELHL
For assay [7], the target named is Cyclin-dependent kinase 1 (Homo sapiens, UniProt P06493). Put plainly: Tested in vitro for inhibition of serine/threonine kinase Cdc2.
Cyclin-dependent kinase 1, sequence (P06493 whole entry): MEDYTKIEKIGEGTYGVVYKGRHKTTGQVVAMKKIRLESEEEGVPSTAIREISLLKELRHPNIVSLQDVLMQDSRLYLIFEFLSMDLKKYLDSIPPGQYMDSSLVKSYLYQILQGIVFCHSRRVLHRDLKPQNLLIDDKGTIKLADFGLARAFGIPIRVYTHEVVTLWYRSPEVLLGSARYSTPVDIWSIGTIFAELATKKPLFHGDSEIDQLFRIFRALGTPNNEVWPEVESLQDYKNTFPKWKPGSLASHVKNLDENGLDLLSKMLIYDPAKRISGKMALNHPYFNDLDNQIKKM
The target of assay [8] is Tyrosine-protein kinase ABL (Homo sapiens, UniProt P00519+P42684). Put plainly: Tested in vitro for inhibition of non-receptor tyrosine kinase v-Abl. The class given is protein assay.
In assay [9] the target is Proto-oncogene tyrosine-protein kinase Src (Gallus gallus) (UniProt P00523). As to the kind of experiment: Tested for inhibition of protein tyrosine kinase c-Src phosphorylation in intact cells.
Assay [10] deals with T2, Proto-oncogene tyrosine-protein kinase Src. Put plainly: Inhibition of protein tyrosine kinase c-Src.

T1 sequence (P00533 whole entry): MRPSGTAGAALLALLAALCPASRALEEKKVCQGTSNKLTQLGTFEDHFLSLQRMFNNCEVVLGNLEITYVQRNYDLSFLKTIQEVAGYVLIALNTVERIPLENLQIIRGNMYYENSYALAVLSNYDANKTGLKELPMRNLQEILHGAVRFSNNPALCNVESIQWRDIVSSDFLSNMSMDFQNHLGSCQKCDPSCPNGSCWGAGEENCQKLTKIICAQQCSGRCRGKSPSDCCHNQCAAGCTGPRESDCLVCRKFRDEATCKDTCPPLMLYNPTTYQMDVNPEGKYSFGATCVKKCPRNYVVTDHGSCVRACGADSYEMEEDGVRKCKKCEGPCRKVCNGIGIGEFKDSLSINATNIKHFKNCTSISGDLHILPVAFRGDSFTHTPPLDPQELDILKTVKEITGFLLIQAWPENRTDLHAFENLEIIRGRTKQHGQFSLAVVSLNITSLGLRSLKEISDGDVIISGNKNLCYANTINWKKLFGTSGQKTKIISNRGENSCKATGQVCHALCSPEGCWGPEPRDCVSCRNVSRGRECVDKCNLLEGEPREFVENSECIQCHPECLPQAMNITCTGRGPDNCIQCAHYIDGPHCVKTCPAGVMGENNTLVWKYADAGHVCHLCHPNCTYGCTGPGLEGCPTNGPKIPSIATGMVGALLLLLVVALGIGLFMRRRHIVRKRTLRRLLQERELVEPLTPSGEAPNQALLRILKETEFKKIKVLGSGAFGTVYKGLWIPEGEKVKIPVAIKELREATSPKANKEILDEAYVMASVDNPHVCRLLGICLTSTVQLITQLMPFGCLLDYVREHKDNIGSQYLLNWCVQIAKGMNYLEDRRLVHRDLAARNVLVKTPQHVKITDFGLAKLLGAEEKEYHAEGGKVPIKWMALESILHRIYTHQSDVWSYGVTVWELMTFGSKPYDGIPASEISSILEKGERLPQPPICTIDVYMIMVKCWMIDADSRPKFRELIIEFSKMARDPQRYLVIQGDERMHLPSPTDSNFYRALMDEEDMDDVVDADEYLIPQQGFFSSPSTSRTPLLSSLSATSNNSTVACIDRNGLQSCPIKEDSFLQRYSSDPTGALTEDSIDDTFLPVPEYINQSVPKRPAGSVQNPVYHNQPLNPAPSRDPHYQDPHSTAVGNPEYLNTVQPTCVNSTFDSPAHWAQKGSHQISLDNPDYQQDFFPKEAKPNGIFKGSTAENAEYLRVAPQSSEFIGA

Broadly, the IC50 is the concentration that inhibits the measured activity by half. As for `COc1cccc(-c2cn(-c3ccc(CCN(C)CCO)cc3)c3ncnc(N)c23)c1`, the concentration for half-maximal inhibition (IC50) in assay [1] is 10000 nM; in assay [2], 300 nM; in [3] it was more than 1000 nM; in assay [4], 300 nM; in [5] it was 30 nM; in assay [6], more than 5000 nM. Further, the half-inhibitory concentration (IC50) is more than 10000 nM in assay [7], 300 nM in assay [8] and 200 nM in assay [9].

On to `Nc1ncnc2c1c(-c1ccccc1)nn2-c1ccccc1`, for which the midpoint of inhibition in assay [10], the IC50, lay at 500 nM.

For `Nc1ncnc2c1c(-c1ccccc1)cn2-c1ccccc1`, the IC50 is 100 nM in [5]; more than 5000 nM in [6]; 54000 nM in [7]; 20 nM in [8]; 3500 nM in [9].

Take `COc1cccc(-c2cn(-c3ccccc3)c3ncnc(N)c23)c1`: the IC50 is more than 1000 nM in assay [3]; 2500 nM in assay [4]; 50 nM in [5]; more than 5000 nM in assay [6]; 43000 nM in assay [7]; 60 nM in assay [8]. Also, half-maximal inhibition in assay [9] (IC50) was put at 3300 nM.

Turning to `Nc1ncnc2c1c(-c1ccccc1)cn2-c1ccc(CNCCO)cc1`, the IC50 turned out to be 1400 nM in assay [2]; 30 nM in assay [5]; 4300 nM in assay [6]; 82500 nM in [7]; 1000 nM in assay [8]; 700 nM in assay [9].

In [5], `O=c1[nH]cnc2c1c(-c1ccccc1)cn2-c1ccccc1` showed an IC50 of 10000 nM.

Consider `Nc1ncnc2c1c(-c1ccccc1)cn2-c1cccc(CO)c1`, for which the IC50 was 12000 nM in assay [1]; 600 nM in assay [2]; 10000 nM in [4]; 60 nM in [5]; more than 5000 nM in [6]; 47000 nM in [7]. The IC50 was 200 nM in assay [8] and more than 5000 nM in [9].

Consider `Cc1ccccc1-c1cn(-c2ccccc2)c2ncnc(N)c12`, for which the IC50 amounted to 2650 nM in [2], 6000 nM in assay [5] and 90000 nM in assay [7].

Turning to `COc1cccc(-c2cn(-c3ccc(CC(=O)NCCO)cc3)c3ncnc(N)c23)c1`, the IC50 in assay [2] was 800 nM; in assay [3], more than 1000 nM; in assay [5], 20 nM; in assay [6] it was more than 5000 nM; in assay [7], more than 10000 nM; in [8] it was 220 nM. Also, the half-maximal inhibitory concentration (IC50) in [9] amounted to 3900 nM.

As for `Nc1ncnc2c1c(-c1cccc(Cl)c1)cn2-c1ccccc1`, the IC50 is 700 nM in [2]; 1000 nM in assay [3]; 200 nM in [5]; more than 100000 nM in [7]; 600 nM in assay [8].

On to `Nc1ncnc2c1c(-c1ccccc1)cn2-c1ccccc1CNCCO`, for which the concentration for half-maximal inhibition (IC50) is 6400 nM in [2], 5000 nM in [5] and more than 10000 nM in [7].

Turning to `Nc1ncnc2c1c(-c1ccccc1)cn2-c1cccc(CNCCO)c1`, the IC50 was 3400 nM in assay [2]; 3600 nM in assay [3]; 10 nM in assay [5]; 5000 nM in assay [6]; more than 10000 nM in assay [7]; 4000 nM in assay [9].

As to `COc1ccc(-c2cn(-c3ccccc3)c3ncnc(N)c23)cc1`, the half-maximal inhibitory concentration (IC50) is 350 nM in assay [2]; 200 nM in assay [3]; 150 nM in assay [5]; more than 10000 nM in [7]; 400 nM in [8].

For the molecule `COc1cccc(-c2cn(-c3cccc(CO)c3)c3ncnc(N)c23)c1`, the half-maximal inhibitory concentration (IC50) in [2] was 800 nM; in assay [3], more than 1000 nM; in assay [5] it was 60 nM; in assay [7], 33000 nM; in assay [8], 50 nM.

For the molecule `CNc1ncnc2c1c(-c1ccccc1)cn2-c1ccccc1`, the half-inhibitory concentration (IC50) is 31000 nM in assay [2], more than 10000 nM in assay [5], more than 10000 nM in [7] and more than 10000 nM in [8].

For `Nc1ncnc2c1c(-c1ccccc1)cn2-c1ccc(CO)cc1`, the IC50 in [2] was 700 nM; in assay [3], 600 nM; in assay [5], 20 nM; in assay [7], 30000 nM; in [8] it was 70 nM.

With `CCOC(=O)c1ccc(-c2cn(-c3ccccc3)c3ncnc(N)c23)cc1`, the IC50 in assay [2] was 1300 nM; in [3], 1100 nM; in [5], 10000 nM; in assay [7], more than 10000 nM; in assay [8] it was more than 10000 nM.

On to `COc1cccc(-c2cn(-c3ccc(CNCCO)cc3)c3ncnc(N)c23)c1`, for which the concentration for half-maximal inhibition (IC50) was 6400 nM in assay [1]; 300 nM in [2]; more than 1000 nM in [3]; 600 nM in assay [4]; 30 nM in assay [5]; more than 5000 nM in [6]. Also, the IC50 in assay [7] was more than 10000 nM; in assay [8], 230 nM; in assay [9], 500 nM.

Take `Clc1ncnc2c1c(-c1ccccc1)cn2-c1ccccc1`: half-maximal inhibition in [5] (IC50) required 8000 nM.

On to `Nc1ncnc2c1c(-c1ccccc1)cn2-c1ccccc1CO`, for which the IC50 in assay [2] was 1100 nM; in assay [5], 300 nM; in [7], more than 10000 nM; in assay [8], 3400 nM.
